From patent US20060019907A1, “Guggulsterone: an inhibitor of nuclear factor - kappaB and IkappaBalpha kinase activation and uses thereof” (Research Development Foundation, priority 2004, published 2006)

Assays:
IκBα = assay: RANKL-induced IκBα phosphorylation and degradation, Western blot; type: cell-based, mouse; details: RAW 264.7
Protocol: Western blot analysis. To determine the levels of protein expression in the cytoplasm or nucleus, extracts were prepared (Majumder and Aggarwal, 2001) and fractionated by SDS-polyacrylamide gel electrophoresis (PAGE). After electrophoresis, the proteins were electrotransferred to nitrocellulose membranes, blotted with each antibody, and detected by ECL regent (Amersham, Piscataway, N.J.). The bands obtained were quantitated using NIH imaging software (NIH, Bethesda, Md.).

NF-κB [1] = assay: Constitutively active NF-κB by EMSA in U266 and MDA 1986 tumor cells; type: cell-based, human; details: 50 μM, 4 hours
Protocol: (§1) NF-κB Activation: To determine NF-κB activation, EMSA was carried out as previously described (Chaturvedi et al., 2000). Briefly, nuclear extracts prepared from cells (2×10^6/ml) treated with TNF were incubated with ^32P-end-labeled 45-mer double-stranded NF-κB oligonucleotide (8 μg of protein with […] of DNA) from the human immunodeficiency virus long terminal repeat, 5′-[…] GGCGTGG-3′ (SEQ ID NO:1) (boldface indicates NF-κB binding sites), for 15 min at 37° C. The DNA-protein complex formed was separated from free oligonucleotide on 6.6% native polyacrylamide gels. A double-stranded mutated oligonucleotide, 5′-[…]-3′ (SEQ ID NO:2), was used to examine the specificity of binding of NF-κB to the DNA. The specificity of binding was also examined by competition with the unlabeled oligonucleotide. For supershift assays, nuclear extracts prepared from TNF-treated cells were incubated with antibodies against either the p50 or the p65 subunit of NF-κB for 30 min at room temperature before the complex was analyzed by EMSA. The dried gels were visualized, and radioactive bands were quantitated using a PHOSPHORIMAGER™ (Molecular Dynamics, Sunnyvale, Calif.) using IMAGEQUANT™ software.

[2] = system: COX-2, MMP-9, VEGF, cyclin D1, c-myc, cIAP1, xIAP, Bfl-1, BCL-2, TRAF1, cFLIP, survivin; assay: TNF-induced expression of NF-κB regulated gene products, Western blot; type: cell-based, human; details: H1299, 50 μM, 0.1 nM TNF
Protocol: Western Blot Analysis: To determine the effect of guggulsterone on TNF-dependent IκBα phosphorylation, IκBα degradation, p65 translocation and p65 phosphorylation, cytoplasmic extracts were prepared as previously described (Majumdar et al., 2001) from H1299 (2×10^6/ml) pretreated with 50 μM guggulsterone for 4 h and then exposed to 0.1 nM TNF for various times. Thirty micrograms of cytoplasmic protein was resolved on 10% SDS-PAGE gel, transferred to a nitrocellulose membrane, blocked with 5% non-fat milk, and probed with specific antibody against IκBα, posphorylated IκBα, p65 and phosphorylated p65. To determine the expression of cyclin D1, COX-2, MMP-9, clAP-1, xlAP, TRAF1, Bcl-2, Bfl-1, cFLIP, and survivin, whole-cell extracts were prepared from treated cells (2×10^6 cells in 2 ml medium), 30-50 μg protein was resolved on SDS-PAGE gel and probed by Western blot with specific antibodies as per manufacturer's recommended protocol. The blots were washed, exposed to HRP-conjugated secondary antibodies for 1 hour, and finally detected by ECL reagent (Amersham Pharmacia Biotech.). The bands were quantitated using a Personal Densitometer Scan v1.30 using IMAGEQUANT™ software version 3.3 (Molecular Dynamics).

IKK = assay: TNF-induced IKK activation, immune complex kinase assay; type: cell-based, human; details: H1299
Protocol: IKK Assay: To determine the effect of guggulsterone on TNF-induced IKK activation, IKK was analyzed by a method essentially as described previously (Shishodia et al., 2003). Briefly, IKK complex was precipitated from whole-cell extracts with antibody to IKKα and IKKβ, assayed in kinase assay using GST-IκBα (1-54) as a substrate, and resolved on 10% polyacrylamide gel; the radioactive bands were visualized using a PHOSPHORIMAGER™. To determine the total amounts of IKKα and IKKβ in each sample, 30 μg of the whole-cell extract protein was resolved on a 7.5% polyacrylamide gel and analyzed by Western blot using antibody against IKKα and IKKβ.

tumor cells = assay: Antiproliferative effects against tumor cells (MTT); type: cell-based, human
Protocol: Cytotoxicity Assay: Cytotoxicity was assayed by the modified tetrazolium salt 3-(4-5-dimethylthiozol-2-yl)2-5-diphenyl-tetrazolium bromide (MTT) assay (Bharti et al., 2003). […] Thereafter, 0.025 ml of MTT solution (5 mg/ml in PBS) was added to each well. After a 2 hour incubation at 37° C., 0.1 ml of the extraction buffer (20% SDS, 50% dimethylformamide) was added. After an overnight incubation at 37° C., the optical densities at 570 nm were measured using a 96-well multiscanner autoreader (Dynatech MR5000), with the extraction buffer as blank. The percent cytotoxicity was determined as follows: (1−(A570 of test sample)/(A570 of control sample)×100%.
Cytotoxicity assay. The cytotoxic effects of guggulsterone was determined by the MTT uptake method. Briefly, 5000 cells were incubated with guggulsterone in triplicate in a 96-well plate at 37° C. MTT solution was then added to each well. After a 2-h incubation at 37° C., extraction buffer (20% SDS, 50% dimethylformamide) was added, the cells were incubated overnight at 37° C., and the OD was then measured at 570 nm using a 96-well multiscanner (Dynex Technologies, MRX Revelation, Chantilly, Va.).

NF-κB [3] = assay: TNF-induced NF-κB activation by EMSA in A549, Jurkat and KBM-5 cells; type: cell-based, human; details: 50 μM, 4 hours, then 0.1 nM TNF 30 min
Protocol: as §1

[4] = 50 μM, 4 h pre-incubation, 10 nM RANKL

CC=C1C(=O)C[C@H]2[C@@H]3CCC4=CC(=O)CC[C@]4(C)[C@H]3CC[C@]12C [guggulsterone, 4,17(20)-pregnadiene-3,16-dione]
phosphorylation of IκBα by GS alone (IκBα): did not result in phosphorylation of IκBα | RANKL-induced IκBα degradation (IκBα; [4]): suppressed RANKL-induced IκBα degradation | RANKL-induced phosphorylation of IκBα (IκBα; [4]): eliminated the RANKL-induced phosphorylation | expression of IκBα (IκBα to β-actin ratio) (IκBα; GS treatment): down-regulates the expression of IκBα | constitutively active NF-κB in U266 and MDA 1986 cells (NF-κB [1]): completely inhibited this constitutively active NF-κB | TNF-induced COX-2, MMP-9 and VEGF expression ([2]; 4 h): abolished the TNF-induced expression of these gene products | TNF-induced cyclin D1 and c-myc expression ([2]; 4 hours): abolished the expression of these gene products | TNF-induced expression of cIAP1, xIAP, Bfl-1, BCL-2, TRAF1, cFLIP and survivin ([2]; 4 hours): this expression was inhibited | TNF-induced IKK activation (IKK; 50 μM, 4 h, 0.1 nM TNF): completely suppressed this activation | expression of IKKα and IKKβ proteins (IKK; whole cell extracts, immunoblot): had no direct effect on the expression of either IKKα | proliferation of head and neck, lung, melanoma, multiple myeloma, leukemia and breast cancer cells (tumor cells; 2000 cells in 0.1 ml, six days, MTT): suppressed the proliferation of a wide variety of cells | proliferation of human leukemia, head and neck carcinoma, multiple myeloma, lung carcinoma, melanoma, breast carcinoma and ovarian cancer cell lines (tumor cells; Example 2): inhibits the proliferation | proliferation of drug resistant cancer cells (tumor cells; STI-resistant K562, dexamethasone resistant MM1, doxorubicin resistant breast cancer cell lines): inhibited the proliferation of drug resistant cancer cells | TNF-induced NF-κB activation in A549, Jurkat and KBM-5 cells (NF-κB [3]): completely inhibited this activation
